Measured values reported in patent US11944632B2, “Use of sodium dichloroisocyanurate (NaDCC) and a pharmaceutical formulation prepared therefrom” (SAVA HEALTHCARE LTD, priority 2020, dated 2024).

What was measured:
Aspergillus sps = test: Susceptibility of fungus isolated from Salacia reticulata to NaDCC; type: cell-based
Procedure: (§1) The bacteria (Bacillus licheniformis, and Bacillus paralicheniformis) and fungus (Aspergillus sps) isolated from the Salacia reticulata and bacteria Bacillus licheniformis isolated from Garcinia cambogia extract was tested for susceptibility for the sensitivity towards NaDCC.

[1] = Cyanuric acid and free available chlorine in lung homogenate after NaDCC DPI; details: administered as a DPI
From the text: Further, the so obtained NaDCC DPI was clinically assessed by determining the amount of cyanuric acid in the tissues.

[2] = temperate and tropical climates; cited from earlier work
mammalian cell vero6 = test: Anti-COVID activity: cell survival (cytotoxicity); details: vero6 cells infected with COVID-19 virus
[3] = test system: microbial load of Salacia extract; test: % microbial load reduction in Salacia extract; details: for Total cfu/g: untreated 21000
From the text: Example 4: % Microbial Load Reduction in Ayurvedic Herbs and Extracts by Using Sodium Dichloroisocyanurate (NaDCC)

Bacillus licheniformis = test: Susceptibility of bacteria isolated from Garcinia cambogia extract to NaDCC; type: cell-based
Procedure: as §1

[4] = test system: Bacillus licheniformis, and Bacillus paralicheniformis; test: Susceptibility of bacteria isolated from Salacia reticulata to NaDCC; type: cell-based
Procedure: as §1

[5] = test system: 29 Gram-positive and 29 Gram-negative bacteria, as well as 66 fungi; details: independent of pH and temperature; cited from earlier work
[6] = Stability of NaDCC solution (HDPE bottle); details: tables 6 to 9
COVID-19 virus = test: Anti-COVID activity: inhibition of virus replication; details: Severe acute respiratory syndrome coronavirus 2, read-out: Inhibition of the virus replication
coliforms and E. coli = details: 25 mg/ml, raw river water; cited from earlier work
Escherichia coli = details: cited from earlier work
Bacterial membrane = details: cited from earlier work
[7] = NaDCC 0.05% to 5% mixed with Salacia extract (inference)

Row | SMILES | Anti-fungal activity (FIG. 1) (Aspergillus sps) | Metabolism / tissue accumulation [1] | Shelf life [2] [years] | Survival of cell (FIG. 3B) (mammalian cell vero6) | Total cfu/g ([3]; 0.02 g NaDCC in 10 g Salacia extract (0.2%), batch RDP/SR/073) [cfu/g] | Total cfu/g ([3]; 0.04 g NaDCC in 10 g Salacia extract (0.4%), batch RDP/SR/074) [cfu/g] | % microbial reduction ([3]; 0.2% of input extract, batch RDP/SR/073) [%] | % microbial reduction ([3]; 0.4% of input extract, batch RDP/SR/074) [%] | Reduction in bacterial counts [3, 7] [logs] | Reduction of bacterial load [3, 7] [%] | Antibacterial activity (FIG. 2) (Bacillus licheniformis) | Antibacterial activity (FIG. 1) [4] | Antimicrobial activity [5] | Stability in acetic acid and cyanuric acid as a solution (inference) [6] | inhibition at 600 ppm (COVID-19 virus) [%] | Reduction of viable bacteria (coliforms and E. coli) | HOCl concentration that completely inhibited cell division (Escherichia coli; Escherichia coli) [µM] | IC50 (Escherichia coli; read-out: HOCl required for 50% inhibition of bacterial growth, 5×10^8 Escherichia coli/ml) [µM] | Concentration below which bacterial membrane disruption and release of cell contents is not observed (Bacterial membrane)
1 | O=c1[n-]c(=O)n(Cl)c(=O)n1Cl.[Na+] [NaDCC, Sodium 3,5-dichloro-2,4,6-trioxo-1,3,5-triazinan-1-ide] | anti-fungal activity | metabolized fast with a short half-life and not accumulated in tissues | 5 | increase the survival of cell | <10 | <10 | >99 | >99 | 4 | 99.99 | effective antibacterial activity | effective antibacterial activity | effective | stable | > 100 | 1.8-2.8 logs |  |  | 
2 | OCl [HOCl, Hypochlorous acid] |  |  |  |  |  |  |  |  |  |  |  |  |  |  |  |  | 50 | 20 | below 5 mM
